The record followed here is BindingDB's records for patent US20250215013 (Impact Therapeutics (Shanghai), 2025).

Structures are written as SMILES.

The target in assay [1] is PARP2 (Homo sapiens, UniProt Q9UGN5). As to the kind of experiment: PARP1 and PARP2 Chemiluminescent Assay.
Description: (§1) The solutions were added to a 96-well plate coated with histone mixture, incubated at room temperature for 1 h, then 50 μL 0.3 ng/mL Streptavidin-HRP was added to each well. The plates were incubated for 30 minutes at room temperature. Finally, the plates were treated with streptavidin-HRP followed by addition of the ELISA ECL substrate to produce chemiluminescence that can be measured using a chemiluminescence reader. Inhibition of the tested compound to PARP1/2 enzyme activity was calculated according to the following formula.Inhibition ⁢ ( % ) = Readings ⁢ of ⁢ positive ⁢ control - X Readings ⁢ of ⁢ positive ⁢ control - Readings ⁢ of ⁢ negative ⁢ controlIC50 value is obtained by fitting the s-shaped dose response curve equation by using XL Fit software. The curve equation is Y=100/(1+10^(logC−logIC50)), C is the compound concentration.
The target in assay [2] is Poly [ADP-ribose] polymerase 1 (Homo sapiens, UniProt P09874). As to the kind of experiment: PARP1 and PARP2 Chemiluminescent Assay.
Poly [ADP-ribose] polymerase 1, sequence (P09874 whole entry): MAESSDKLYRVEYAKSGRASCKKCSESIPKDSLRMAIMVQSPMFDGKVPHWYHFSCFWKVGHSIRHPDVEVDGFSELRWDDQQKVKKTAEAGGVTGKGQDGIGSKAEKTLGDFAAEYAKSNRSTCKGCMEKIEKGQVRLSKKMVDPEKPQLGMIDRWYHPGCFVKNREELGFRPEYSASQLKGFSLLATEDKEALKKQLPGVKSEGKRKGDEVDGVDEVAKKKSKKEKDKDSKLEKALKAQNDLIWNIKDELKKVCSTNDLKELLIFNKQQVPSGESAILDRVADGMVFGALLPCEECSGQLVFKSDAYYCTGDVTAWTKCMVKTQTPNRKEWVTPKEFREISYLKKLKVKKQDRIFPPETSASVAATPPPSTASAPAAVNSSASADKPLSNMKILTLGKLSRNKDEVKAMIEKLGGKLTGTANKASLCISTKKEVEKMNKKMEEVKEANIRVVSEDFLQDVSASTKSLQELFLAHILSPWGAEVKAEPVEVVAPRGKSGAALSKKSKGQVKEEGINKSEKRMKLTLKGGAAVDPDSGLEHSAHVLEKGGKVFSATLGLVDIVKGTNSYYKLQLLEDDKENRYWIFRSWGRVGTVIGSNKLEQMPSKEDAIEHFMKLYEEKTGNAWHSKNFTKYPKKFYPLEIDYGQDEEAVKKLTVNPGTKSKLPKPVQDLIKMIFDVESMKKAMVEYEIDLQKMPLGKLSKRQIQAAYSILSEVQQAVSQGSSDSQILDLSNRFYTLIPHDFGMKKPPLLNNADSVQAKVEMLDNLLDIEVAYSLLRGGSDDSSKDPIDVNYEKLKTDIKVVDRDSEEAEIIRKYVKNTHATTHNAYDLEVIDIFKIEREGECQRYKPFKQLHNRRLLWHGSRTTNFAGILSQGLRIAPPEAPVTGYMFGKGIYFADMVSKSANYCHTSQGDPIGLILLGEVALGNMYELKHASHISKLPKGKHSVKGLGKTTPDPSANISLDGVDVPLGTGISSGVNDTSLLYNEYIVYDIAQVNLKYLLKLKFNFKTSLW
Description: as §1

PARP2, sequence (Q9UGN5 whole entry): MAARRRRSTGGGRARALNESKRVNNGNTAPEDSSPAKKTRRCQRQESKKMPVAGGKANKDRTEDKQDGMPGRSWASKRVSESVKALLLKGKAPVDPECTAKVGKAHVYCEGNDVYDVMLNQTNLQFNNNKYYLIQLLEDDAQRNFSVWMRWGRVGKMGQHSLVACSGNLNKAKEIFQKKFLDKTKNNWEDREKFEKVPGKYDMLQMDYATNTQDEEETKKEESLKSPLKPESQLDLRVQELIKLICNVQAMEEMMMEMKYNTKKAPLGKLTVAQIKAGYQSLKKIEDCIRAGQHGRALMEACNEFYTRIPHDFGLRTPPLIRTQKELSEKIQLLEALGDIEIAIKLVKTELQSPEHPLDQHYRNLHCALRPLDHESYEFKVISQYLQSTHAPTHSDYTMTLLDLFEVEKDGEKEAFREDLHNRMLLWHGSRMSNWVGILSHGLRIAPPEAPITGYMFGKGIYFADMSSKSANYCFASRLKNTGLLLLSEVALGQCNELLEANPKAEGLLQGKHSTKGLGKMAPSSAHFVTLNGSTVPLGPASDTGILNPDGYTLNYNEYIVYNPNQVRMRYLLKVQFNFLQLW

For `CNC(=O)c1ccc(N2CCN(Cc3ccc4c([nH]c(=O)n5ccnc45)c3F)CC2)c(C)n1` [US20250215013, Example 50], the concentration for half-maximal inhibition (IC50) in assay [1] is more than 10000 nM; in assay [2], 2.13 nM.
For `CNC(=O)c1ccc(N2CCN(Cc3ccc4c([nH]c(=O)c5c(F)cnn54)c3F)CC2)c(F)n1` [US20250215013, Example 188] the same measures were 1540 nM and 0.4 nM.

A word on the IC50: it is the concentration that gives 50% inhibition. The low end stands for greater potency in that assay, the high end for weaker potency in that assay.
